The record followed here is patent US20050070510A1, “Substituted tetracycline compounds as synergistic antifungal agents” (Paratek Pharmaceuticals, Inc., priority 2001, published 2005).

Each structure is given as a SMILES string.

This data set relates to COS-1 cells. The data set can be described thus: In vitro mammalian cytotoxicity assay (Resazurin).
For `CN(C)[C@@H]1C(O)=C(C(N)=O)C(=O)[C@@]2(C#N)C(O)=C3C(=O)c4c(ccc(-c5ccc(C=O)c6ccccc56)c4O)[C@H](N)[C@@]3(N)[C@H](O)[C@@]12N` [PN], the “In Vitro Cytotoxicity” value is “** (toxicities less than 25 μg/mL are represented by **)”. With `CN(C)CC#Cc1cc(C(C)(C)C)c(O)c2c1C[C@@]1(N)C[C@@]3(N)[C@H](N(C)C)C(O)=C(C(N)=O)C(=O)[C@@]3(C#N)C(O)=C1C2=O` [OH], the “In Vitro Cytotoxicity” value was “** (toxicities less than 25 μg/mL are represented by **)”. With `CCN(CC)c1ccc(-c2csc(Nc3ccc4c(c3O)C(=O)C3=C(O)[C@]5(C#N)C(=O)C(C(N)=O)=C(O)[C@@H](N(C)C)[C@]5(N)[C@@H](O)[C@]3(N)[C@H]4O)n2)cc1` [DU], the “In Vitro Cytotoxicity” value is on record as “** (toxicities less than 25 μg/mL are represented by **)”. Turning to `CN(C)[C@@H]1C(O)=C(C(N)=O)C(=O)[C@@]2(C#N)C(O)=C3C(=O)c4c(O)ccc(C#Cc5ccccc5F)c4C[C@@]3(N)C[C@@]12N` [GH], the “In Vitro Cytotoxicity” value was “** (toxicities less than 25 μg/mL are represented by **)”.

For `CN(C)[C@@H]1C(O)=C(C(N)=O)C(=O)[C@@]2(C#N)C(O)=C3C(=O)c4c(O)ccc(-c5ccc(F)c(F)c5)c4C[C@@]3(N)C[C@@]12N` [QB], the “In Vitro Cytotoxicity” value was “** (toxicities less than 25 μg/mL are represented by **)”.

Turning to `CN(C)[C@@H]1C(O)=C(C(N)=O)C(=O)[C@@]2(C#N)C(O)=C3C(=O)c4c(O)ccc(CCC5CCCCC5)c4C[C@@]3(N)C[C@@]12N` [IX], the “In Vitro Cytotoxicity” value is “** (toxicities less than 25 μg/mL are represented by **)”. In the case of `CN(C)CCN(C)Cc1ccc(-c2cc(N(C)C)c3c(c2O)C(=O)C2=C(O)[C@]4(C#N)C(=O)C(C(N)=O)=C(O)[C@@H](N(C)C)[C@]4(N)C[C@]2(N)C3)s1` [ST], the “In Vitro Cytotoxicity” value was “* (toxicities greater than >25 μg/ml are represented by *)”. Regarding `CCCCCc1cc(N(C)C)c2c(c1O)C(=O)C1=C(O)[C@]3(C#N)C(=O)C(C(N)=O)=C(O)[C@@H](N(C)C)[C@]3(N)C[C@]1(N)C2` [KW], the “In Vitro Cytotoxicity” value is listed as “** (toxicities less than 25 μg/mL are represented by **)”.

For `CCOc1ccc(-c2ccc(O)c3c2C[C@@]2(N)C[C@@]4(N)C(N(C)C)C(O)=C(C(N)=O)C(=O)[C@@]4(C#N)C(O)=C2C3=O)cc1CNC(=O)C(F)(F)F` (stereo partly drawn) [QQ], the “In Vitro Cytotoxicity” value is “* (toxicities greater than >25 μg/ml are represented by *)”. To `CC(=O)c1ccc(O)c2c1C[C@@]1(N)C[C@@]3(N)[C@H](N(C)C)C(O)=C(C(N)=O)C(=O)[C@@]3(C#N)C(O)=C1C2=O` [GR] belongs “* (toxicities greater than >25 μg/ml are represented by *)”. `COC(=O)c1cc(N(C)C)c2c(c1O)C(=O)C1=C(O)[C@]3(C#N)C(=O)C(C(N)=O)=C(O)[C@@H](N(C)C)[C@]3(N)C[C@]1(N)C2` [Compound TC, 9-Minocycline methyl ester]: the “In Vitro Cytotoxicity” value was “* (toxicities greater than >25 μg/ml are represented by *)”. As to `CCc1cc(C(C)(C)C)c(O)c2c1C[C@@]1(N)C[C@@]3(N)[C@H](N(C)C)C(O)=C(C(=O)NC(C)(C)C)C(=O)[C@@]3(C#N)C(O)=C1C2=O` [LE], the “In Vitro Cytotoxicity” value is “** (toxicities less than 25 μg/mL are represented by **)”. With `COc1ccc(-c2ccc(O)c3c2C[C@@]2(N)C[C@@]4(N)[C@H](N(C)C)C(O)=C(C(N)=O)C(=O)[C@@]4(C#N)C(O)=C2C3=O)cc1CN` [QD], the “In Vitro Cytotoxicity” value is “* (toxicities greater than >25 μg/ml are represented by *)”. The same measure for `CCCCCCOC(=O)NCc1cc(N(C)C)c2c(c1O)C(=O)C1=C(O)[C@]3(C#N)C(=O)C(C(N)=O)=C(O)[C@@H](N(C)C)[C@]3(N)C[C@]1(N)C2` [MS]: “** (toxicities less than 25 μg/mL are represented by **)”.

Take `CN(C)[C@@H]1C(O)=C(C(N)=O)C(=O)[C@@]2(C#N)C(O)=C3C(=O)c4c(O)ccc(C#CC5=CCCCC5)c4C[C@@]3(N)C[C@@]12N` [GF]: the “In Vitro Cytotoxicity” value is listed as “** (toxicities less than 25 μg/mL are represented by **)”. `COc1ccc(-c2cc(N(C)C)c3c(c2O)C(=O)C2=C(O)[C@]4(C#N)C(=O)C(C(N)=O)=C(O)[C@@H](N(C)C)[C@]4(N)C[C@]2(N)C3)cc1` [EA]: the “In Vitro Cytotoxicity” value was “** (toxicities less than 25 μg/mL are represented by **)”. The same measure for `CCCCc1ccc(O)c2c1C[C@@]1(N)C[C@@]3(N)[C@H](N(C)C)C(O)=C(C(N)=O)C(=O)[C@@]3(C#N)C(O)=C1C2=O` [KY]: “** (toxicities less than 25 μg/mL are represented by **)”. For `CN(C)[C@@H]1C(O)=C(C(N)=O)C(=O)[C@@]2(C#N)C(O)=C3C(=O)c4c(ccc(-c5ccc6c(c5)OCO6)c4O)[C@H](N)[C@@]3(N)[C@H](O)[C@@]12N` [PV], the “In Vitro Cytotoxicity” value is reported as “** (toxicities less than 25 μg/mL are represented by **)”. In the case of `Cc1noc(C)c1S(=O)(=O)NCc1cc(N(C)C)c2c(c1O)C(=O)C1=C(O)[C@]3(C#N)C(=O)C(C(N)=O)=C(O)[C@@H](N(C)C)[C@]3(N)C[C@]1(N)C2` [TJ], the “In Vitro Cytotoxicity” value was “* (toxicities greater than >25 μg/ml are represented by *)”. For `COc1ccc(-c2ccc(O)c3c2C[C@@]2(N)C[C@@]4(N)[C@H](N(C)C)C(O)=C(C(N)=O)C(=O)[C@@]4(C#N)C(O)=C2C3=O)c(OC)c1OC` [RT], the “In Vitro Cytotoxicity” value was “** (toxicities less than 25 μg/mL are represented by **)”. The same measure for `CCCC#Cc1cc(N(C)C)c2c(c1O)C(=O)C1=C(O)[C@]3(C#N)C(=O)C(C(N)=O)=C(O)[C@@H](N(C)C)[C@]3(N)C[C@]1(N)C2` [KX]: “** (toxicities less than 25 μg/mL are represented by **)”; for `COC(=O)C(CC(C)C)NCc1ccc(OC)c(-c2ccc(O)c3c2C[C@@]2(N)C[C@@]4(N)[C@H](N(C)C)C(O)=C(C(N)=O)C(=O)[C@@]4(C#N)C(O)=C2C3=O)c1` (stereo partly drawn) [OA]: “** (toxicities less than 25 μg/mL are represented by **)”; for `CN(C)c1cc(-c2cccc(C(N)=O)c2)c(O)c2c1C[C@@]1(N)C[C@@]3(N)[C@H](N(C)C)C(O)=C(C(N)=O)C(=O)[C@@]3(C#N)C(O)=C1C2=O` [EU]: “** (toxicities less than 25 μg/mL are represented by **)”. Consider `CCCCCc1ccc(O)c2c1C[C@@]1(N)C[C@@]3(N)[C@H](N(C)C)C(O)=C(C(N)=O)C(=O)[C@@]3(C#N)C(O)=C1C2=O` [JU], for which the “In Vitro Cytotoxicity” value is recorded as “** (toxicities less than 25 μg/mL are represented by **)”.

On to `CCC(=O)c1ccc(O)c2c1C[C@@]1(N)C[C@@]3(N)[C@H](N(C)C)C(O)=C(C(N)=O)C(=O)[C@@]3(C#N)C(O)=C1C2=O` [LI], for which the “In Vitro Cytotoxicity” value is “** (toxicities less than 25 μg/mL are represented by **)”.

For `COc1ccc(-c2ccc(O)c3c2C[C@@]2(N)C[C@@]4(N)C(N(C)C)C(O)=C(C(N)=O)C(=O)[C@@]4(C#N)C(O)=C2C3=O)cc1C=O` (stereo partly drawn) [QV], the “In Vitro Cytotoxicity” value was “** (toxicities less than 25 μg/mL are represented by **)”.

In the case of `CN(C)c1cc(NCc2ccc3c(c2)OCO3)c(O)c2c1C[C@@]1(N)C[C@@]3(N)[C@H](N(C)C)C(O)=C(C(N)=O)C(=O)[C@@]3(C#N)C(O)=C1C2=O` [MK], the “In Vitro Cytotoxicity” value is “** (toxicities less than 25 μg/mL are represented by **)”. As to `CN(C)c1cc(CNc2ccccc2)c(O)c2c1C[C@@]1(N)C[C@@]3(N)[C@H](N(C)C)C(O)=C(C(N)=O)C(=O)[C@@]3(C#N)C(O)=C1C2=O` [VD], the “In Vitro Cytotoxicity” value was “** (toxicities less than 25 μg/mL are represented by **)”. Consider `CN(C)c1cc(C#Cc2cccnc2)c(O)c2c1C[C@@]1(N)C[C@@]3(N)[C@H](N(C)C)C(O)=C(C(N)=O)C(=O)[C@@]3(C#N)C(O)=C1C2=O` [JH], for which the “In Vitro Cytotoxicity” value was “** (toxicities less than 25 μg/mL are represented by **)”.

Turning to `CC#Cc1cc(C#CC)c2c(c1O)C(=O)C1=C(O)[C@]3(C#N)C(=O)C(C(N)=O)=C(O)[C@@H](N(C)C)[C@]3(N)C[C@]1(N)C2` [NI], the “In Vitro Cytotoxicity” value was “** (toxicities less than 25 μg/mL are represented by **)”. For the compound `CN(C)c1cc(NCc2ccc(OC(F)(F)F)cc2)c(O)c2c1C[C@@]1(N)C[C@@]3(N)[C@H](N(C)C)C(O)=C(C(N)=O)C(=O)[C@@]3(C#N)C(O)=C1C2=O` [MQ], the “In Vitro Cytotoxicity” value is reported as “** (toxicities less than 25 μg/mL are represented by **)”. In the case of `COC(=O)c1cc(N)cc(-c2ccc(O)c3c2C[C@@]2(N)C[C@@]4(N)[C@H](N(C)C)C(O)=C(C(N)=O)C(=O)[C@@]4(C#N)C(O)=C2C3=O)c1` [PT], the “In Vitro Cytotoxicity” value was “* (toxicities greater than >25 μg/ml are represented by *)”.

Consider `CN(C)c1cc(-c2ccc3c(c2)OCO3)c(O)c2c1C[C@@]1(N)C[C@@]3(N)[C@H](N(C)C)C(O)=C(C(N)=O)C(=O)[C@@]3(C#N)C(O)=C1C2=O` [EH], for which the “In Vitro Cytotoxicity” value was “** (toxicities less than 25 μg/mL are represented by **)”. To `CCC(C)C#Cc1ccc(O)c2c1C[C@@]1(N)C[C@@]3(N)[C@H](N(C)C)C(O)=C(C(N)=O)C(=O)[C@@]3(C#N)C(O)=C1C2=O` (stereo partly drawn) [GW] belongs “** (toxicities less than 25 μg/mL are represented by **)”; to `COC(=O)C#Cc1cc(N(C)C)c2c(c1O)C(=O)C1=C(O)[C@]3(C#N)C(=O)C(C(N)=O)=C(O)[C@@H](N(C)C)[C@]3(N)C[C@]1(N)C2` [JI], “* (toxicities greater than >25 μg/ml are represented by *)”; to `CC(=O)c1cc(F)c(O)c2c1C[C@@]1(N)C[C@@]3(N)[C@H](N(C)C)C(O)=C(C(N)=O)C(=O)[C@@]3(C#N)C(O)=C1C2=O` [SB], “* (toxicities greater than >25 μg/ml are represented by *)”. For `CN(C)[C@@H]1C(O)=C(C(N)=O)C(=O)[C@@]2(C#N)C(O)=C3C(=O)c4c(O)ccc(C#CCCC#Cc5ccc(O)c6c5C[C@@]5(N)C[C@@]7(N)[C@H](N(C)C)C(O)=C(C(N)=O)C(=O)[C@@]7(C#N)C(O)=C5C6=O)c4C[C@@]3(N)C[C@@]12N` [NC], the “In Vitro Cytotoxicity” value is “* (toxicities greater than >25 μg/ml are represented by *)”.

Regarding `CN(C)[C@@H]1C(O)=C(C(N)=O)C(=O)[C@@]2(C#N)C(O)=C3C(=O)c4c(O)ccc(C#CC5CCCCC5)c4C[C@@]3(N)C[C@@]12N` [FI], the “In Vitro Cytotoxicity” value was “** (toxicities less than 25 μg/mL are represented by **)”.

As to `COc1cccc(C/C=C\c2ccc(O)c3c2C[C@@]2(N)C[C@@]4(N)[C@H](N(C)C)C(O)=C(C(N)=O)C(=O)[C@@]4(C#N)C(O)=C2C3=O)c1OC` [HV], the “In Vitro Cytotoxicity” value is recorded as “** (toxicities less than 25 μg/mL are represented by **)”.
